Patent publication US20210330611A1, “THERAPY FOR NEUROLOGICAL DISEASES/DISORDERS” (priority 2020, published 2021)
Where a name gives a salt, the structure may show the parent alone. Read-outs that look alike come from different tables or passages of the source.

How the values were obtained:
[1] = system: fibrin- and LPS-induced microglia activation; experiment: cells; assay type: cell-based, rat; conditions: for Activity: Table 7, fib = fibrin, LPS, tox = toxicity
primary rat microglia [2] = experiment: Cell toxicity (dead cells, size <150 μm2) in coated fibrin (cFib) assay;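 note: share of dead cells sized under 150 µm2 at 10 µM in fibrin-stimulated microglia HTS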
[3] = system: fibrin-induced microglia activation; experiment: Image-based assay of fibrin-induced microglia activation (HTS and dose response); assay type: cell-based, rat; conditions: for inhibition at 10 µM / IC50: Rattus norvegicus, Microglia; for inhibition at 10 µM: read-out: Fibrin % inhibition; for IC50: Table 7, read-out: fib_IC50
primary rat microglia [4] = experiment: Cell toxicity (dead cells, size <150 μm2) in LPS assay
[5] = system: LPS-induced microglia activation; experiment: Image-based assay of LPS-induced microglia activation (HTS and dose response); assay type: cell-based, rat; conditions: for inhibition at 10 µM / IC50: Rattus norvegicus, Microglia; for inhibition at 10 µM: read-out: LPS % inhibition; for IC50: Table 7, read-out: LPS_IC50
[6] = primary HTS, 10 μM, fibrin assay, dead cells size <150 μm2
[7] = primary HTS, 10 μM, fibrin-stimulated primary microglia
[8] = primary HTS, 10 μM, LPS assay, dead cells size <150 μm2
[9] = primary HTS, 10 μM, LPS-stimulated primary microglia
[10] = quadrant by fibrin and LPS inhibition in HTS of 1907 compounds
[11] = primary microglia HTS, fibrin stimulation, decreased size (<150 μm^2) as marker of toxicity
[12] = primary microglia HTS, fibrin stimulation, increased cell size (>800 μm^2) as marker of activation
[13] = primary microglia HTS, LPS stimulation, decreased size (<150 μm^2) as marker of toxicity
[14] = primary microglia HTS, LPS stimulation, increased cell size (>800 μm^2) as marker of activation
[15] = 48 h, primary microglia HTS, LPS stimulation, increased cell size (>800 μm^2) as marker of activation
[16] = HTS of 1907 compounds, quadrant by fibrin and LPS inhibition
[17] = primary microglia HTS, 10 μM, fibrin assay, cell size <150 μm^2 as marker of toxicity
[18] = primary microglia HTS, 10 μM, fibrin-stimulated, cell size >800 μm^2 as marker of activation
[19] = primary microglia HTS, 10 μM, LPS assay, cell size <150 μm^2 as marker of toxicity
[20] = primary microglia HTS, 10 μM, LPS-stimulated, cell size >800 μm^2 as marker of activation

C=C[C@@]1(C)CC(=O)[C@]2(O)[C@@]3(C)[C@@H](O)CCC(C)(C)[C@@H]3[C@H](O)[C@H](OC(C)=O)[C@@]2(C)O1 [Colforsin]
Quadrant (FIG. 5b) ([1]; primary HTS, 10 μM): Q4 | Fibrin % cell toxicity (primary rat microglia [2]; [6]): 1% | inhibition at 10 µM [3, 7]: 46% | LPS % cell toxicity (primary rat microglia [4]; [8]): 0% | inhibition at 10 µM [5, 9]: 26%

C[n+]1cc2c3c(ccc2c2ccc4cc5c(cc4c21)OCO5)OCO3
Quadrant (FIG. 5b) [1, 10]: Q1 | Fibrin % cell toxicity (primary rat microglia [2]; [11]): 0% | Fibrin % inhibition [3, 12]: 24% | LPS % cell toxicity (primary rat microglia [4]; [13]): 55% | LPS % inhibition [5, 14]: 101%

CC(=O)OCC(=O)[C@@]1(O)CC[C@H]2[C@@H]3CCC4=CC(=O)C=C[C@]4(C)[C@H]3[C@@H](O)C[C@@]21C [Prednisolone acetate, reference compound]
Quadrant (FIG. 5b) ([1]; Table 2, screen at 10 μM): Q2 | Activity [1]: fib/LPS | Quadrant (FIG. 5b) [1, 10]: Q2 | Fibrin % cell toxicity (primary rat microglia [2]; [11]): 4% | IC50 [3]: 3 nM | inhibition at 10 µM [3, 12]: 109% | LPS % cell toxicity (primary rat microglia [4]; [13]): 6% | inhibition at 10 µM [5, 15]: 111% | IC50 [5]: 3 nM

C[C@@H](O)[C@@H]1NC(=O)[C@H](CCCCN)NC(=O)[C@@H](Cc2c[nH]c3ccccc23)NC(=O)[C@H](Cc2ccccc2)NC(=O)[C@@H](NC(=O)[C@H](N)Cc2ccccc2)CSSC[C@@H](C(=O)N[C@H](CO)[C@@H](C)O)NC1=O [Octreotide]
Quadrant (FIG. 5b) [1, 10]: Q4 | Fibrin % cell toxicity (primary rat microglia [2]; [11]): 1% | Fibrin % inhibition [3, 12]: 3% | LPS % cell toxicity (primary rat microglia [4]; [13]): 1% | LPS % inhibition [5, 14]: −5%

CCOC(=O)CC(SP(=S)(OC)OC)C(=O)OCC (centres unmarked) [Malathion]
Quadrant (FIG. 5b) [1, 10]: Q4 | Fibrin % cell toxicity (primary rat microglia [2]; [11]): 0% | inhibition at 10 µM [3, 12]: -8% | LPS % cell toxicity (primary rat microglia [4]; [13]): 0% | inhibition at 10 µM [5, 15]: 8%

O=C(O)C1CSCN1 (centres unmarked) [Timonacic]
Quadrant (FIG. 5b) [1, 16]: Q4 | Fibrin % cell toxicity (primary rat microglia [2]; [17]): 0% | inhibition at 10 µM [3, 18]: -38% | LPS % cell toxicity (primary rat microglia [4]; [19]): 0% | inhibition at 10 µM [5, 20]: 19%

CCOC(=O)n1ccn(C)c1=S [Carbimazole]
Quadrant (FIG. 5b) ([1]; primary HTS, 10 μM): Q4 | Fibrin % cell toxicity (primary rat microglia [2]; [6]): 0% | inhibition at 10 µM [3, 7]: -32% | LPS % cell toxicity (primary rat microglia [4]; [8]): 0% | inhibition at 10 µM [5, 9]: 8%

COCC1=C(C(=O)OC(C)OC(=O)OC(C)C)N2C(=O)[C@@H](NC(=O)/C(=N\OC)c3csc(N)n3)[C@H]2SC1 (some centres unmarked) [Cefpodoxime Proxetil]
Quadrant (FIG. 5b) ([1]; primary HTS, 10 μM): Q4 | Fibrin % cell toxicity (primary rat microglia [2]; [6]): 0% | inhibition at 10 µM [3, 7]: -39% | LPS % cell toxicity (primary rat microglia [4]; [8]): 0% | inhibition at 10 µM [5, 9]: 12%

COc1ccc(O)c(C(C)(C)C)c1 [Butylated Hydroxyanisole]
Quadrant (FIG. 5b) ([1]; primary HTS, 10 μM): Q4 | Fibrin % cell toxicity (primary rat microglia [2]; [6]): 1% | Fibrin % inhibition [3, 7]: −17% | LPS % cell toxicity (primary rat microglia [4]; [8]): 0% | LPS % inhibition [5, 9]: 26%

COc1cc(/C=C/C(N)=O)cc(OC)c1OC [Cintriamide]
Quadrant (FIG. 5b) ([1]; primary HTS, 10 μM): Q4 | Fibrin % cell toxicity (primary rat microglia [2]; [6]): 1% | inhibition at 10 µM [3, 7]: -2% | LPS % cell toxicity (primary rat microglia [4]; [8]): 0% | inhibition at 10 µM [5, 9]: 15%

COC(=O)C1=C(C)NC(C)=C(C(=O)OCCN(C)Cc2ccccc2)C1c1cccc([N+](=O)[O-])c1 (centres unmarked) [Nicardipine]
Quadrant (FIG. 5b) [1, 10]: Q4 | Fibrin % cell toxicity (primary rat microglia [2]; [11]): 0% | inhibition at 10 µM [3, 12]: 11% | LPS % cell toxicity (primary rat microglia [4]; [13]): 0% | inhibition at 10 µM [5, 15]: 12%

O=C(c1ccccc1)c1ccc2n1CCC2C(=O)O (centres unmarked) [Ketorolac]
Quadrant (FIG. 5b) [1, 10]: Q4 | Fibrin % cell toxicity (primary rat microglia [2]; primary microglia HTS, fibrin stimulation, toxicity = cell size <150 μm2): 0% | inhibition at 10 µM ([3]; primary microglia HTS, fibrin stimulation, activation = cell size >800 μm2): 15% | LPS % cell toxicity (primary rat microglia [4]; primary microglia HTS, LPS stimulation, toxicity = cell size <150 μm2): 0% | inhibition at 10 µM ([5]; 48 h, primary microglia HTS, LPS stimulation, activation = cell size >800 μm2): 26%

CN1C(CCl)Nc2cc(Cl)c(S(N)(=O)=O)cc2S1(=O)=O (centres unmarked) [Methyclothiazide]
Quadrant (FIG. 5b) [1, 10]: Q4 | Fibrin % cell toxicity (primary rat microglia [2]; [11]): 1% | inhibition at 10 µM [3, 12]: 25% | LPS % cell toxicity (primary rat microglia [4]; [13]): 0% | inhibition at 10 µM [5, 15]: 17%

CCOc1nc2cccc(C(=O)O)c2n1Cc1ccc(-c2ccccc2-c2nnn[nH]2)cc1 [Candesartan]
Quadrant (FIG. 5b) ([1]; primary HTS, 10 μM): Q4 | Fibrin % cell toxicity (primary rat microglia [2]; [6]): 1% | inhibition at 10 µM [3, 7]: 9% | LPS % cell toxicity (primary rat microglia [4]; [8]): 0% | inhibition at 10 µM [5, 9]: 11%

Cc1cccc(CN2CCN(C(c3ccccc3)c3ccc(Cl)cc3)CC2)c1 (centres unmarked) [Meclizine]
Quadrant (FIG. 5b) [1, 10]: Q4 | Fibrin % cell toxicity (primary rat microglia [2]; [11]): 0% | inhibition at 10 µM [3, 12]: -33% | LPS % cell toxicity (primary rat microglia [4]; [13]): 0% | inhibition at 10 µM [5, 15]: 12%

CC(CCc1ccccc1)NC(C)C(O)c1ccc(O)cc1 (centres unmarked) [Nylidrin hydrochloride, reference compound]
Quadrant (FIG. 5b) ([1]; Table 2, screen at 10 μM): Q4 | Activity [1]: fib/LPS | Quadrant (FIG. 5b) [1, 10]: Q4 | Fibrin % cell toxicity (primary rat microglia [2]; [11]): 0% | IC50 [3]: 2 nM | inhibition at 10 µM [3, 12]: 6% | LPS % cell toxicity (primary rat microglia [4]; [13]): 1% | inhibition at 10 µM [5, 15]: 24% | IC50 [5]: 7 nM

CCCCCCCCCCCCCCCCOP(=O)([O-])OCC[N+](C)(C)C [Miltefosine]
Quadrant (FIG. 5b) [1, 10]: Q4 | Fibrin % cell toxicity (primary rat microglia [2]; [11]): 1% | inhibition at 10 µM [3, 12]: -31% | LPS % cell toxicity (primary rat microglia [4]; [13]): 0% | inhibition at 10 µM [5, 15]: 11%

C[N+](C)(C)CCOC(=O)CCC(=O)OCC[N+](C)(C)C [Succinylcholine]
Quadrant (FIG. 5b) [1, 16]: Q4 | Fibrin % cell toxicity (primary rat microglia [2]; [17]): 1% | inhibition at 10 µM [3, 18]: -54% | LPS % cell toxicity (primary rat microglia [4]; [19]): 0% | inhibition at 10 µM [5, 20]: -5%

CC1=C(CC(=O)O)c2cc(F)ccc2/C1=C\c1ccc(S(C)(=O)=O)cc1 [Sulindac Sulfone]
Quadrant (FIG. 5b) [1, 16]: Q4 | Fibrin % cell toxicity (primary rat microglia [2]; [17]): 1% | Fibrin % inhibition [3, 18]: −27% | LPS % cell toxicity (primary rat microglia [4]; [19]): 0% | LPS % inhibition [5, 20]: 3%

NC[C@H]1O[C@H](O[C@H]2[C@H](O)[C@@H](O[C@H]3O[C@H](CO)[C@@H](O)[C@H](N)[C@H]3O)[C@H](N)C[C@@H]2N)[C@H](N)C[C@@H]1O [Tobramycin]
Quadrant (FIG. 5b) [1, 16]: Q4 | Fibrin % cell toxicity (primary rat microglia [2]; [17]): 1% | inhibition at 10 µM [3, 18]: 1% | LPS % cell toxicity (primary rat microglia [4]; [19]): 0% | inhibition at 10 µM [5, 20]: 24%

C[N+]1(C)[C@@H]2CC[C@H]1C[C@@H](OC(=O)C(CO)c1ccccc1)C2 (some centres unmarked) [Methylatropine Nitrate]
Quadrant (FIG. 5b) [1, 10]: Q4 | Fibrin % cell toxicity (primary rat microglia [2]; [11]): 1% | inhibition at 10 µM [3, 12]: -2% | LPS % cell toxicity (primary rat microglia [4]; [13]): 0% | inhibition at 10 µM [5, 15]: 14%
